In article PMC11350868, “A Novel Bacitracin-like Peptide from Mangrove-Isolated Bacillus paralicheniformis NNS4-3 against MRSA and Its Genomic Insights” (Antibiotics, 2024):
Converted amounts (≈) assume the structure as drawn. Where two headings read alike, the source gives them in different places. Non-standard residues stand in square brackets, D forms with d. No end group written: not given here. Orn = NCCC[C@H](N)C(=O)O

Assays:
MRSA strain 1096 [1] = assay: Agar well diffusion assay; assay type: cell-based, Staphylococcus aureus; details: 100 µL CFS of 3-day culture in 9 mm wells, controls 30 µg, MH agar, 37 °C, 18 h, mean ± SD, n = 3
Method: (§1) The active isolates from the agar overlay assay were inoculated in broth. The types of broth media were the same as those used during the initial isolation. The liquid cultures were incubated at 30 °C with shaking at 150 rpm for 18 h. The optical density of the starter culture was adjusted to a turbidity of 0.1 OD at 625 nm with 0.85% sterile NaCl solution before transferring 1 mL of the culture into 49 mL of fresh broth. The inoculum was then incubated at 30 °C and 150 rpm for 3 days. The cell-free supernatant (CFS) was collected by centrifugation at 10,000× g at 4 °C for 15 min and filtered using a 0.2 µm sterile cellulose acetate syringe filter (Sigma-Aldrich, Warren, MI, USA). The antibacterial activity of the isolates was studied using S. aureus TISTR 517, obtained from the Thailand Institute of Scientific and Technological Research (TISTR), Thailand. The three strains of MRSA (strains 142, 1096, and 2468) were kindly provided by the medical technology laboratory of the School of Allied Health Sciences, Walailak University, Thailand. The pathogenic bacteria were incubated at 37 °C for 18 h on MH agar. The microbial indicators were prepared to a turbidity equivalent to 0.1 OD at 625 nm before being spread on MH agar. The CFS of 100 µL was aseptically transferred to 9 mm diameter wells, followed by an incubation period at 37 °C for 18 h. Cefoxitin (30 µg) and vancomycin (30 µg) (Sigma-Aldrich Co., St. Louis, MO, USA) were employed as positive controls. The experiment was conducted in triplicate and the mean ± SD of the diameters of the inhibition zones was measured.
(§2) The sample was incubated at 30 °C with shaking at 150 rpm for 7 days. The OD at 625 nm of the inoculum was measured and the CFS was collected at 0, 4, 8, 12, 16, 20, and 24 h on the first day of incubation and then once a day until the seventh day of incubation. The bacterial growth was observed by measuring OD at 625 nm and the collected CFS at all time points was evaluated for antibacterial activity using the agar well diffusion assay against S. aureus TISTR 517 and three strains of MRSA. The experiment was performed in triplicate. […] The kinetics of the antimicrobial compounds’ production curve with mean ± SD were presented.

MRSA strain 142 [2] = assay: Agar well diffusion assay; assay type: cell-based, Staphylococcus aureus; details: 100 µL CFS of 3-day culture in 9 mm wells, controls 30 µg, MH agar, 37 °C, 18 h, mean ± SD, n = 3
Method: as §1, §2

MRSA strain 2468 [3] = assay: Agar well diffusion assay; assay type: cell-based, Staphylococcus aureus; details: 100 µL CFS of 3-day culture in 9 mm wells, controls 30 µg, MH agar, 37 °C, 18 h, mean ± SD, n = 3
Method: as §1, §2

S. aureus TISTR 517 [4] = assay: Agar well diffusion assay; assay type: cell-based, Staphylococcus aureus; details: 100 µL CFS of 3-day culture in 9 mm wells, controls 30 µg, MH agar, 37 °C, 18 h, mean ± SD, n = 3
Method: as §1, §2

MRSA strain 1096 [5] = assay: microbe, parasite or virus in culture; assay type: cell-based, Staphylococcus aureus; details: Staphylococcus aureus, MRSA, 24 h
Method: (§3) The MIC and MBC of the purified peptide of NNS4-3 were determined against various strains of S. aureus. The broth microdilution method followed the guidance provided by the Clinical and Laboratory Standards Institute (CLSI). Pathogenic bacteria, such as S. aureus TISTR 517 and MRSA strains 142, 1096, and 2468, were used as test strains and cultured on MH agar at 37 °C for 18 h. A single colony of each tested bacterium was suspended in 0.85% NaCl until its turbidity reached an OD of 0.1 at 625 nm (1 × 10^8 CFU/mL). The bacterial cells were diluted to 5 × 10^6 CFU/mL using cation-adjusted Mueller Hinton broth (CAMHB). The diluted cell suspension (10 µL) was transferred to each well of a 96-well plate. With a total volume of 100 µL in each well, the purified AMP was added to each well to obtain final concentrations between 0.125 and 64 µg/mL. Standard antibiotics (vancomycin and cefoxitin) and antibiotic-free samples were used as positive and negative controls, respectively. The 96-well plate was incubated at 37 °C for 24 h. The experiment was carried out in triplicate for each strain. […] Subsequently, 100 µL of each dilution was spread on MH agar and then incubated at 37 °C for 24 h. The MBC was identified as the lowest concentration at which no bacterial colony growth was observed on the plate.

MRSA strain 142 [6] = assay: microbe, parasite or virus in culture; assay type: cell-based, Staphylococcus aureus; details: Staphylococcus aureus, MRSA, 24 h
Method: as §3

MRSA strain 2468 [7] = assay: microbe, parasite or virus in culture; assay type: cell-based, Staphylococcus aureus; details: Staphylococcus aureus, MRSA, 24 h
Method: as §3

S. aureus TISTR 517 [8] = assay: microbe, parasite or virus in culture; assay type: cell-based, Staphylococcus aureus; details: Staphylococcus aureus
Method: as §3

MRSA strain 2468 [9] = assay: SEM of treated cells (morphological changes); assay type: cell-based, Staphylococcus aureus; details: 1× MIC, 18 h incubation, 20,000× magnification
Method: (§4) The treatment effect of NNS4-3 AMP on tested bacterial cells was investigated by observing morphological changes under SEM. S. aureus TISTR 517 and MRSA strain 2468 were precultured in MH broth for 18 h before being centrifuged to harvest the cell pellet. Cell pellets of both strains were washed with 0.85% sterile NaCl solution 3 times to remove exopolysaccharide. The washed cells were then dispersed in CAMHB to adjust cell turbidity to 0.1 OD at 625 nm. The prepared cells were diluted to 5 × 10^5 CFU/mL with CAMHB before being treated with NNS4-3 AMP. […] The sample for SEM micrography was prepared by fixing the bacterial sample in 2.5% glutaraldehyde in 0.1 M phosphate buffer pH 7.2 for 24 h before ethanol dehydration of the sample. The complete ethanol removal from the prepared sample was conducted by a critical point drying machine (Quorum Technologies Ltd., Lewes, East Sussex, UK).

S. aureus TISTR 517 [10] = assay: SEM of treated cells (morphological changes); assay type: cell-based, Staphylococcus aureus; details: 1× MIC, 18 h incubation, 20,000× magnification
Method: as §4

[11] = tested on: Bacillus paralicheniformis NNS4-3; assay: Antibiotic susceptibility test of NNS4-3 (disc diffusion); assay type: cell-based; details: disc diffusion on MH agar, 30 °C, 24 h, triplicate; result in words (Figure S1)
Method: The susceptibility of NNS4-3 to the standard antibiotics was studied by a disc diffusion assay. The isolate was inoculated at 30 °C with shaking at 150 rpm for 24 h in ZM broth. The culture was adjusted to 0.1 OD at 625 nm before being spread onto the MH agar. The antibiotic discs (Oxoid Ltd., Hampshire, UK) of ciprofloxacin (5 µg), piperacillin (100 µg) combined with tazobactam (10 µg), imipenem (10 µg), ceftriaxone (30 µg), cefoxitin (30 µg), doxycycline (30 µg), vancomycin (30 µg), erythromycin (15 µg), and gentamicin (10 µg) were placed on the culture-seeded agar and then incubated at 30 °C for 24 h. The susceptibility tests were conducted in triplicate. The inhibition zones were presented as mean ± SD.

MSSA strain RN4420 = details: ref [41]; cited from earlier work
Description: The literature search could support the observed difference in MIC between MSSA and MRSA strains.

MRSA strain MW2 = details: ref [41]; cited from earlier work
[12] = bacitracin from Bacillus paralicheniformis UBBLi30, ref [42], cited from earlier work
[13] = broth microdilution, CAMHB, 37 °C, 0.125-64 µg/mL, triplicate, read-out: MIC

CO[C@@]1(NC(=O)Cc2cccs2)C(=O)N2C(C(=O)O)=C(COC(N)=O)CS[C@@H]21 [Cefoxitin]
Zone of Inhibition (MRSA strain 1096 [1]): 0.00 ± 0.00 mm
Zone of Inhibition (MRSA strain 142 [2]): 0.00 ± 0.00 mm
Zone of Inhibition (MRSA strain 2468 [3]): 0.00 ± 0.00 mm
Zone of Inhibition (S. aureus TISTR 517 [4]): 35.87 ± 0.46 mm
MIC (MRSA strain 1096 [5]; [13]): > 64 µg/mL
MIC (MRSA strain 142 [6]; [13]): > 64 µg/mL
MIC (MRSA strain 2468 [7]; [13]): > 64 µg/mL
MIC (S. aureus TISTR 517 [8]; TISTR517, broth microdilution, CAMHB, 37 °C, 24 h, 0.125-64 µg/mL, triplicate, read-out: MIC): 2 µg/mL (≈ 4.68 µM)
MBC (S. aureus TISTR 517 [8]; TISTR517, plated on MH agar after MIC, 37 °C, 24 h, triplicate, read-out: MBC): 2 µg/mL (≈ 4.68 µM)
morphological changes under SEM (MRSA strain 2468 [9]): good tolerance
morphological changes under SEM (S. aureus TISTR 517 [10]): cellular lysis
antibiotic susceptibility of the NNS4-3 isolate [11]: moderate to high susceptibility

CN[C@H](CC(C)C)C(=O)N[C@H]1C(=O)N[C@@H](CC(N)=O)C(=O)N[C@H]2C(=O)N[C@H]3C(=O)N[C@H](C(=O)N[C@H](C(=O)O)c4cc(O)cc(O)c4-c4cc3ccc4O)[C@H](O)c3ccc(c(Cl)c3)Oc3cc2cc(c3O[C@@H]2O[C@H](CO)[C@@H](O)[C@H](O)[C@H]2O[C@H]2C[C@](C)(N)[C@H](O)[C@H](C)O2)Oc2ccc(cc2Cl)[C@H]1O [Vancomycin]
Zone of Inhibition (MRSA strain 1096 [1]): 24.38 ± 0.51 mm
Zone of Inhibition (MRSA strain 142 [2]): 24.13 ± 1.27 mm
Zone of Inhibition (MRSA strain 2468 [3]): 24.64 ± 1.02 mm
Zone of Inhibition (S. aureus TISTR 517 [4]): 23.37 ± 1.27 mm
MBC (MRSA strain 1096 [5]): 2 µg/mL (≈ 1.38 µM)
MIC (MRSA strain 1096 [5]): 2 µg/mL (≈ 1.38 µM)
MBC (MRSA strain 142 [6]): 2 µg/mL (≈ 1.38 µM)
MIC (MRSA strain 142 [6]): 2 µg/mL (≈ 1.38 µM)
MBC (MRSA strain 2468 [7]): 2 µg/mL (≈ 1.38 µM)
MIC (MRSA strain 2468 [7]): 2 µg/mL (≈ 1.38 µM)
MBC (S. aureus TISTR 517 [8]; TISTR517, 24 h): 2 µg/mL (≈ 1.38 µM)
MIC (S. aureus TISTR 517 [8]; TISTR517, 24 h): 2 µg/mL (≈ 1.38 µM)
morphological changes under SEM (MRSA strain 2468 [9]): irregular shape
morphological changes under SEM (S. aureus TISTR 517 [10]): cellular lysis
antibiotic susceptibility of the NNS4-3 isolate [11]: moderate to high susceptibility

CO/N=C(\C(=O)N[C@@H]1C(=O)N2C(C(=O)O)=C(CSc3nc(=O)c(=O)[nH]n3C)CS[C@H]12)c1csc(N)n1 [ceftriaxone]
antibiotic susceptibility of the NNS4-3 isolate [11]: tolerated

O=C(O)c1cn(C2CC2)c2cc(N3CCNCC3)c(F)cc2c1=O [ciprofloxacin]
antibiotic susceptibility of the NNS4-3 isolate [11]: high potency inhibition

C[C@H]1c2cccc(O)c2C(=O)C2=C(O)[C@]3(O)C(=O)C(C(N)=O)=C(O)[C@@H](N(C)C)[C@@H]3[C@@H](O)[C@@H]21 [doxycycline]
antibiotic susceptibility of the NNS4-3 isolate [11]: moderate to high susceptibility

CC[C@H]1OC(=O)[C@H](C)[C@@H](O[C@H]2C[C@@](C)(OC)[C@@H](O)[C@H](C)O2)[C@H](C)[C@@H](O[C@@H]2O[C@H](C)C[C@H](N(C)C)[C@H]2O)[C@](C)(O)C[C@@H](C)C(=O)[C@H](C)[C@@H](O)[C@]1(C)O [erythromycin]
antibiotic susceptibility of the NNS4-3 isolate [11]: highest susceptibility

CNC(C)C1CCC(N)C(OC2C(N)CC(N)C(OC3OCC(C)(O)C(NC)C3O)C2O)O1 (stereo not shown) [gentamicin]
antibiotic susceptibility of the NNS4-3 isolate [11]: moderate to high susceptibility

C[C@@H](O)[C@H]1C(=O)N2C(C(=O)O)=C(SCCN=CN)C[C@H]12 [imipenem]
antibiotic susceptibility of the NNS4-3 isolate [11]: high potency inhibition

LCLEIK[Orn]IFHDN [bacitracin, AMP constructed by non-ribosomal peptide synthesis; literature values]
MIC (MSSA strain RN4420): 64 µg/mL
MIC (MRSA strain MW2): 32 µg/mL
activity after autoclaving ([12]; autoclaving for 15 min): 80%
activity at pH 14 ([12]; pH 14, 1 h): lost
